Assay results: US8354414B2, “Substituted bicyclic pyrimidines” (Cephalon, Inc, priority 2006, dated 2013)
Like-named read-outs stand apart in the source and are kept apart here.

Key:
His6-GSK-3β = molecular target: T1, His6-GSK-3β (Homo sapiens, UniProt P49841); assay: Inhibition of His6-GSK-3β kinase activity (ELISA-based format, time-resolved fluorescence readout); assay type: biochemical; settings: read-out: GSK3β IC50
T1 construct: made in house; host or cells: Sf21 insect cells (baculovirus)
Method in brief: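 N-terminal His6-tagged full-length human GSK-3β (aa 2-419) expressed in Sf21 cells, 200 ng/ml, phosphorylating plate-coated GST-Rb with 20 μM ATP in pH 7.2 HEPES buffer, 30 min at 37° C. Phospho-Rb (Ser-780) detected by antibody plus Eu-labelled secondary, time-resolved fluorescence; IC50 from curves.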

CDK5/GST-p25 = molecular target: T2, CDK5/GST-p25 (Homo sapiens, UniProt Q00535); assay: Inhibition of CDK5/GST-p25 kinase activity (ELISA with time-resolved fluorescence readout); assay type: biochemical
T2 construct: The final construct, encoding for full-length human CDK5; made in house; host or cells: Sf21 insect cells (baculovirus co-infection)
Method in brief: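 Sf21-coexpressed full-length human CDK5 with GST-p25 (p35 aa 108-307), glutathione-purified, at 2 ng/ml was reacted for 20 min at 37 °C on plate-coated GST-Rb(773-928). Buffer was 20 mM HEPES pH 7.2, 10 µM ATP, 10 mM MgCl2 and 2.5% DMSO. Phospho-Rb Ser-780 was detected by Eu-labelled antibody TRF, and IC50 curves were fitted.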

T2 sequence (Q00535 whole entry): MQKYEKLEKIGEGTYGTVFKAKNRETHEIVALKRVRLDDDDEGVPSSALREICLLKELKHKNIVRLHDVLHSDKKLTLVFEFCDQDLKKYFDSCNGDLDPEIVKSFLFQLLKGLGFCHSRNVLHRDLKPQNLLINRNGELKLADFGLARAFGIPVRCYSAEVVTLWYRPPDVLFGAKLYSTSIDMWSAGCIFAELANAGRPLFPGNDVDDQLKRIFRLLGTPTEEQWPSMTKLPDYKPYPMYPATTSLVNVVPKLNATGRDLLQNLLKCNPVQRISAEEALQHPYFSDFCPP
T2 sequence (Q15078 108-307 partner limits assumed): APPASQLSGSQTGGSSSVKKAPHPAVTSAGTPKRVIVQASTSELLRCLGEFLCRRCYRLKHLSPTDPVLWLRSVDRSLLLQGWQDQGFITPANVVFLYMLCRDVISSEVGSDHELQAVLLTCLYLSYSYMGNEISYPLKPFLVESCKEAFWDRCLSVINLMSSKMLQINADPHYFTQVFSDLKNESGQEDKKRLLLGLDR
T1 sequence (P49841 2-419): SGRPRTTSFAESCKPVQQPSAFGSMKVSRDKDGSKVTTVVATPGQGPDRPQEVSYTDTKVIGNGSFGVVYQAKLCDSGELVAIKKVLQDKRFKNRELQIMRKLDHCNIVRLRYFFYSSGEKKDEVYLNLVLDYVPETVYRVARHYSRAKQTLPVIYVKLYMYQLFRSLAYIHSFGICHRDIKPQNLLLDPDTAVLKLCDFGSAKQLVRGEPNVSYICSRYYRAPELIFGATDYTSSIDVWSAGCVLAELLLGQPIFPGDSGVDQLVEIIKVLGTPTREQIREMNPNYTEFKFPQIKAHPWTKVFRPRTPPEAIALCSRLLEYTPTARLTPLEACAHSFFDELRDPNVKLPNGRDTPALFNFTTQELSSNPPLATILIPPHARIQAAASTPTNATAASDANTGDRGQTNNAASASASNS

N#Cc1ccc2c(c1)C(c1ncnc3nn(C4CCCC4)cc13)C(=O)N2 (stereo not shown) [Example 30, 3-(2-Cyclopentyl-2H-pyrazolo[3,4-d]pyrimidin-4-yl)-2-oxo-2,3-dihydro-1H-indole-5-carbonitrile]
IC50 (His6-GSK-3β; class symbols): < 0.3 µM | melting point: > 300 °C (dec.) | IC50 (CDK5/GST-p25; class symbols): < 0.3 µM

O=C1Nc2ccc(Br)cc2C1c1ncnc2nn(C3CCCC3)cc12 (stereo not shown) [Example 31, 5-Bromo-3-(2-Cyclopentyl-2H-pyrazolo[3,4-d]pyrimidin-4-yl)-2-oxo-1,3-dihydro-indol-2-one]
IC50 (His6-GSK-3β; class symbols): < 0.3 µM | melting point: 319 to 322 °C (dec.) | IC50 (CDK5/GST-p25; class symbols): < 0.3 µM

O=C1Nc2cc(Cl)ccc2C1c1ncnc2nn(C3CCCC3)cc12 (stereo not shown) [Example 32, 6-Chloro-3-(2-Cyclopentyl-2H-pyrazolo [3,4-d]pyrimidin-4-yl)-2-oxo-1,3-dihydro-indol-2-one]
IC50 (His6-GSK-3β; numeric bounds): > 3 µM | melting point: 294 to 296 °C | IC50 (CDK5/GST-p25; class symbols): 0.3 to 3 µM

O=C1Nc2ccc(C(F)(F)F)cc2C1c1ncnc2nn(C3CCCC3)cc12 (stereo not shown) [Example 34, 3-(2-Cyclopentyl-2H-pyrazolo [3,4-d]pyrimidin-4-yl)-5-trifluoromethyl-1,3-dihydro-indol-2-one]
IC50 (His6-GSK-3β; class symbols): < 0.3 µM | melting point: 292 to 293 °C | IC50 (CDK5/GST-p25; class symbols): < 0.3 µM

O=C1Nc2c(F)cc(F)cc2C1c1ncnc2nn(C3CCCC3)cc12 (stereo not shown) [Example 35, 3-(2-Cyclopentyl-2H-pyrazolo[3,4-d]pyrimidin-4-yl)-5,7-difluoro-1,3-dihydro-indol-2-one]
IC50 (His6-GSK-3β; class symbols): 0.3 to 3 µM | melting point: 296 to 297 °C | IC50 (CDK5/GST-p25; numeric bounds): > 3 µM

O=C1Nc2ccc(Cl)cc2C1c1ncnc2nn(C3CCCC3)cc12 (stereo not shown) [Example 36, 5-Chloro-3-(2-Cyclopentyl-2H-pyrazolo [3,4-d]pyrimidin-4-yl)-2-oxo-1,3-dihydro-indol-2-one]
IC50 (His6-GSK-3β; class symbols): < 0.3 µM | melting point: 290 to 292 °C | IC50 (CDK5/GST-p25; class symbols): < 0.3 µM

O=C1Nc2ccccc2C1c1ncnc2nn(C3CCCC3)cc12 (stereo not shown) [Example 37, 3-(2-Cyclopentyl-2H-pyrazolo[3,4-d]pyrimidin-4-yl)-1,3-dihydro-indo-2-one]
IC50 (His6-GSK-3β; class symbols): 0.3 to 3 µM | melting point: 289 to 292 °C | IC50 (CDK5/GST-p25; class symbols): 0.3 to 3 µM

N#Cc1ccc2c(c1)NC(=O)C2c1ncnc2nn(C3CCCC3)cc12 (stereo not shown) [Example 38, 3-(2-Cyclopentyl-2H-pyrazolo [3,4-d]pyrimidin-4-yl)-2-oxo-2,3-dihydro-1H-indole-6-carbonitrile]
IC50 (His6-GSK-3β; class symbols): > 10 µM | melting point: 340 to 344 °C | IC50 (CDK5/GST-p25; class symbols): > 10 µM

N#Cc1cccc2c1NC(=O)C2c1ncnc2nn(C3CCCC3)cc12 (stereo not shown) [Example 39, 3-(2-Cyclopentyl-2H-pyrazolo[3,4-d]pyrimidin-4-yl)-2-oxo-2,3-dihydro-1H-indole-7-carbonitrile]
IC50 (His6-GSK-3β; class symbols): 0.3 to 3 µM | melting point: > 380 °C | IC50 (CDK5/GST-p25; class symbols): < 0.3 µM

O=C1Nc2ccc(F)cc2C1c1ncnc2nn(C3CCCC3)cc12 (stereo not shown) [Example 40, 3-(2-Cyclopentyl-2H-pyrazolo[3,4-d]pyrimidin-4-yl)-5-fluoro-1,3-dihydro-indol-2-one]
IC50 (His6-GSK-3β; class symbols): 0.3 to 3 µM | melting point: 256 to 260 °C | IC50 (CDK5/GST-p25; class symbols): < 0.3 µM

O=C1Nc2cc(F)ccc2C1c1ncnc2nn(C3CCCC3)cc12 (stereo not shown) [Example 41, 3-(2-Cyclopentyl-2H-pyrazolo[3,4-d]pyrimidin-4-yl)-6-fluoro-1,3-dihydro-indol-2-one]
IC50 (His6-GSK-3β; class symbols): 0.3 to 3 µM | melting point: 258 to 263 °C | IC50 (CDK5/GST-p25; class symbols): 0.3 to 3 µM

O=C1Nc2ccc(F)c(F)c2C1c1ncnc2nn(C3CCCC3)cc12 (stereo not shown) [Example 42, 3-(2-Cyclopentyl-2H-pyrazolo[3,4-d]pyrimidin-4-yl)-4,5-difluoro-1,3-dihydro-indol-2-one]
IC50 (His6-GSK-3β; class symbols): 0.3 to 3 µM | melting point: 280 to 284 °C | IC50 (CDK5/GST-p25; class symbols): 0.3 to 3 µM

O=C1Nc2c(cc([N+](=O)[O-])cc2[N+](=O)[O-])C1c1ncnc2nn(C3CCCC3)cc12 (stereo not shown) [Example 43, 3-(2-Cyclopentyl-2H-pyrazolo[3,4-d]pyrimidin-4-yl)-5,7-dinitro-1,3-dihydro-indol-2-one]
IC50 (His6-GSK-3β; class symbols): 0.3 to 3 µM | melting point: > 300 °C | IC50 (CDK5/GST-p25; class symbols): 0.3 to 3 µM

O=c1[nH]c2ccccc2n1-c1ncnc2nn(C3CCCC3)cc12 [Example 44, 1-(2-Cyclopentyl-2H-pyrazolo[3,4-d]pyrimidin-4-yl)-1,3-dihydro-benzoimidazol-2-one]
IC50 (His6-GSK-3β; class symbols): > 10 µM | melting point: 236 to 240 °C | IC50 (CDK5/GST-p25; class symbols): > 10 µM

O=C1Nc2ccc(Br)cc2C1c1ncnc2nn(C3CCCCC3)cc12 (stereo not shown) [Example 46, 5-Bromo-3-(2-cyclohexyl-2H-pyrazolo[3,4-d]pyrimidin-4-yl)-1,3-dihydro-indol-2-one]
IC50 (His6-GSK-3β; class symbols): < 0.3 µM | melting point: 285 to 290 °C | IC50 (CDK5/GST-p25; class symbols): < 0.3 µM

O=C1Nc2ccc(Cl)cc2C1c1ncnc2nn(C3CCCCC3)cc12 (stereo not shown) [Example 48, 5-Chloro-3-(2-cyclohexyl-2H-pyrazolo[3,4-d]pyrimidin-4-yl)-1,3-dihydro-indol-2-one]
IC50 (His6-GSK-3β; class symbols): < 0.3 µM | melting point: 294 to 298 °C | IC50 (CDK5/GST-p25; class symbols): 0.3 to 3 µM

O=C1Nc2ccc([N+](=O)[O-])cc2C1c1ncnc2nn(C3CCCCC3)cc12 (stereo not shown) [Example 49, 3-(2-Cyclohexyl-2H-pyrazolo[3,4-d]pyrimidin-4-yl)-5-nitro-1,3-dihydroindol-2-one]
IC50 (His6-GSK-3β; class symbols): < 0.3 µM | melting point: 301 to 304 °C | IC50 (CDK5/GST-p25; class symbols): < 0.3 µM

O=C1Nc2cc(F)ccc2C1c1ncnc2nn(C3CCCCC3)cc12 (stereo not shown) [Example 50, 3-(2-cyclohexyl-2H-pyrazolo[3,4-d]pyrimidin-4-yl)-6-fluoro-1,3-dihydro-indol-2-one]
IC50 (His6-GSK-3β; class symbols): 0.3 to 3 µM | melting point: 297 to 300 °C | IC50 (CDK5/GST-p25; class symbols): 0.3 to 3 µM

O=C1Nc2cc(Cl)ccc2C1c1ncnc2nn(C3CCCCC3)cc12 (stereo not shown) [Example 51, 6-Chloro-3-(2-cyclohexyl-2H-pyrazolo[3,4-d]pyrimidin-4-yl)-1,3-dihydro-indol-2-one]
melting point: 299 to 303 °C | IC50 (CDK5/GST-p25; numeric bounds): > 3 µM

O=C1Nc2ccc(C(F)(F)F)cc2C1c1ncnc2nn(C3CCCCC3)cc12 (stereo not shown) [Example 53, 3-(2-Cyclohexyl-2H-pyrazolo [3,4-d]pyrimidin-4-yl)-5-trifluoromethyl-1,3-dihydro-indol-2-one]
IC50 (His6-GSK-3β; class symbols): 0.3 to 3 µM | melting point: > 300 °C | IC50 (CDK5/GST-p25; class symbols): > 10 µM

O=C1Nc2ccc(Br)cc2C1c1ncnc2c1cnn2C1CCCC1 (stereo not shown) [Example 54, 5-Bromo-3-(1-cyclopentyl-1H-pyrazolo[3,4-d]pyrimidin-4-yl)-1,3-dihydro-indol-2-one]
IC50 (His6-GSK-3β; class symbols): > 10 µM | melting point: 287 to 290 °C | IC50 (CDK5/GST-p25; numeric bounds): > 3 µM

N#Cc1ccc2c(c1)C(c1ncnc3c1cnn3C1CCCC1)C(=O)N2 (stereo not shown) [Example 55, 3-(1-Cyclopentyl-1H-pyrazolo[3,4-d]pyrimidin-4-yl)-2-oxo-2,3-dihydro-1H-indole-5-carbonitrile]
IC50 (His6-GSK-3β; class symbols): 0.3 to 3 µM | melting point: > 300 °C | IC50 (CDK5/GST-p25; class symbols): > 10 µM

O=C1Nc2ccc(C(F)(F)F)cc2C1c1ncnc2c1cnn2C1CCCC1 (stereo not shown) [Example 56, 3-(1-Cyclopentyl-1H-pyrazolo [3,4-d]pyrimidine-4-yl)-5-trifluoromethyl-1,3-dihydro-indol-2-one]
IC50 (His6-GSK-3β; class symbols): > 10 µM | melting point: > 300 °C | IC50 (CDK5/GST-p25; class symbols): > 10 µM

O=C1Nc2ccc([N+](=O)[O-])cc2C1c1ncnc2c1cnn2C1CCCC1 (stereo not shown) [Example 57, 3-(1-Cyclopentyl-1H-pyrazolo[3,4-d]pyrimidin-4-yl)-5-nitro-1,3-dihydro-indol-2-one]
IC50 (His6-GSK-3β; class symbols): 0.3 to 3 µM | melting point: > 300 °C (dec.) | IC50 (CDK5/GST-p25; class symbols): > 10 µM

O=C1Nc2ccc(Cl)cc2C1c1ncnc2c1cnn2C1CCCC1 (stereo not shown) [Example 58, 5-Chloro-3-(1-cyclopentyl-1H-pyrazolo[3,4-d]pyrimidin-4-yl)-1,3-dihydro-indol-2-one]
IC50 (His6-GSK-3β; numeric bounds): > 3 µM | melting point: 304 to 306 °C | IC50 (CDK5/GST-p25; class symbols): > 10 µM

O=C1Nc2cc(Cl)ccc2C1c1ncnc2c1cnn2C1CCCC1 (stereo not shown) [Example 59, 6-Chloro-3-(1-cyclopentyl-1H-pyrazolo[3,4-d]pyrimidin-4-yl)-1,3-dihydro-indol-2-one]
IC50 (His6-GSK-3β; class symbols): 0.3 to 3 µM | melting point: 288 to 291 °C | IC50 (CDK5/GST-p25; class symbols): > 10 µM

O=C1Nc2c(cc([N+](=O)[O-])cc2[N+](=O)[O-])C1c1ncnc2c1cnn2C1CCCC1 (stereo not shown) [Example 60, 3-(1-cyclopentyl-1H-pyrazolo[3,4-d]pyrimidin-4-yl)-5,7-dinitro-1,3-dihydro-indol-2-one]
IC50 (His6-GSK-3β; class symbols): > 10 µM | melting point: 242 to 246 °C | IC50 (CDK5/GST-p25; class symbols): > 10 µM

O=C1Nc2c(F)cc(F)cc2C1c1ncnc2c1cnn2C1CCCC1 (stereo not shown) [Example 61, 3-(1-cyclopentyl-1H-pyrazolo[3,4-d]pyrimidin-4-yl)-5,7-difluoro-1,3-dihydro-indol-2-one]
IC50 (His6-GSK-3β; class symbols): > 10 µM | melting point: > 300 °C | IC50 (CDK5/GST-p25; class symbols): > 10 µM

O=C1Nc2ccccc2C1c1ncnc2c1cnn2C1CCCC1 (stereo not shown) [Example 62, 3-(1Cyclopentyl-1H-pyrazolo[3,4-d]pyrimidin-4-yl)-1,3-dihydro-indol-2-one]
IC50 (His6-GSK-3β; numeric bounds): > 3 µM | melting point: 228 to 231 °C | IC50 (CDK5/GST-p25; class symbols): > 10 µM

Cn1cc2c(C3C(=O)Nc4ccc(Br)cc43)nc(Cl)nc2n1 (stereo not shown) [Example 300, 5-Bromo-3-(6-chloro-2-methyl-2H-pyrazolo[3,4-d]pyrimidin-4-yl)-1,3-dihydro-indol-2-one]
melting point: > 300 °C

CCCn1cc2c(C3(F)C(=O)Nc4ccc(Br)cc43)ncnc2n1 (stereo not shown) [Example 383, 5-Bromo-3-fluoro-3-(2-propyl-2H-pyrazolo[3,4-d]pyrimidin-4-yl)-1,3-dihydroindol-2-one]
melting point: 184 to 186 °C
